According to patent US11530217B1, “Antitubercular compounds” (priority 2022, dated 2022):
In brackets after ≈: the same amount, converted by molar mass. Where two headings read alike, the source gives them in different places.

Test system: susceptible H37Rv MTB strain
Assay: Resazurin Microplate Assay (REMA), anti-tubercular activity, H37Rv
Type: cell-based
Settings: Mycobacterium tuberculosis, 192 h, read-out: MIC (μg/mL) H37Rv
[1] = in vitro, REMA, susceptible H37Rv MTB strain, 8 days incubation

Row | Compound | MIC (H37RV) | MIC [1]
1 | COC(=O)c1c(C(=O)OC)c2c(C)cc(C)cn2c1C(=O)c1ccc(OC)cc1 [Compound 5b, Dimethyl 3-(4-methoxybenzoyl)-6,8-dimethylindolizine-1,2-dicarboxylate] | 4 µg/mL (≈ 10.1 µM) | 
2 | CCOC(=O)c1cc(C(=O)c2ccc(Cl)cc2)n2cc(C)cc(C)c12 [Compound 5c, Ethyl 3-(4-chlorobenzoyl)-6,8-dimethylindolizine-1-carboxylate] |  | 0.5 µg/mL (≈ 1.41 µM)
3 | COC(=O)c1c(C(=O)OC)c2c(C)cc(C)cn2c1C(=O)c1ccc(Cl)cc1 [Compound 5d, Dimethyl 3-(4-chlorobenzoyl)-6,8-dimethylindolizine-1,2-dicarboxylate] |  | 8 µg/mL (≈ 20 µM)
4 | CCOC(=O)c1cc(C(=O)c2ccc(F)cc2)n2cc(C)cc(C)c12 [Compound 5g, Ethyl 3-(4-fluorobenzoyl)-6,8-dimethylindolizine-1-carboxylate] | 4 µg/mL (≈ 11.8 µM) | 
5 | CCOC(=O)c1cc(C(=O)c2ccccc2[N+](=O)[O-])n2cc(C)cc(C)c12 [Compound 5h, Ethyl 6,8-dimethyl-3-(2-nitrobenzoyl)indolizine-1-carboxylate] | 4 µg/mL (≈ 10.9 µM) | 
6 | CCOC(=O)c1cc(C(=O)c2cc(C(F)(F)F)cc(C(F)(F)F)c2)n2cc(C)cc(C)c12 [Compound 5i, Ethyl 3-(3,5-bis(trifluoromethyl)benzoyl)-6,8-dimethylindolizine-1-carboxylate] | 4 µg/mL (≈ 8.75 µM) | 
7 | CCOC(=O)c1cc(C(=O)c2ccc(C#N)cc2)n2cc(C)cc(C)c12 [Compound 5j, Ethyl 3-(4-cyanobenzoyl)-6,8-dimethylindolizine-1-carboxylate] | 0.5 µg/mL (≈ 1.44 µM) | 
8 | CCOC(=O)c1cc(C(=O)c2ccc(C)cc2)n2cc(C)cc(C)c12 [Compound 5k, Ethyl 6,8-dimethyl-3-(4-methylbenzoyl)indolizine-1-carboxylate] | 0.5 µg/mL (≈ 1.49 µM) | 
9 | COC(=O)c1c(C(=O)OC)c2c(C)cc(C)cn2c1C(=O)c1ccc(C#N)cc1 [Compound 5l, Dimethyl 3-(4-cyanobenzoyl)-6,8-dimethylindolizine-1,2-dicarboxylate] |  | 4 µg/mL (≈ 10.2 µM)
10 | COC(=O)c1c(C(=O)OC)c2c(C)cc(C)cn2c1C(=O)c1ccc(C)cc1 [Compound 5m, Dimethyl 6,8-dimethyl-3-(4-methylbenzoyl)indolizine-1,2-dicarboxylate] | 0.25 µg/mL (≈ 0.659 µM) | 
